Experimental data from PubChem BioAssay AID256 (DTP/NCI, 2004).
Several values for one entry are separate records, joined by “and”; a condition that tells them apart may be missing. Identical values can stand only once. Inconclusive results and toxic doses are left out. How the source made its calls: active means survival T/C of 150% or more; inactive means T/C below 125% in these data.

Test system: CD2F1 mice, L1210 leukemia ip, survival T/C
Test: NCI In Vivo Anticancer Drug Screen. Data for tumor model L1210 Leukemia (intraperitoneal) in CD2F1 (CDF1) mice
Conditions: higher = longer survival
Summary of the method: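 Antitumor effect is scored in animals hosting a serially transplanted tumor. Values compare compound-dosed animals against vehicle-only controls as a simple quotient.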

[1] = endpoint: mean survival time, dose: 100.0 mg/kg/injection, schedule: Q01DX001 (ip), vehicle: saline with Tween-80
[2] = endpoint: mean survival time, dose: 100.0 mg/kg/injection, schedule: Q01DX009 (ip), vehicle: saline with Tween-80
[3] = endpoint: mean survival time, dose: 200.0 mg/kg/injection, schedule: Q01DX001 (ip), vehicle: saline with Tween-80
[4] = endpoint: mean survival time, dose: 200.0 mg/kg/injection, schedule: Q01DX009 (ip), vehicle: saline with Tween-80
[5] = endpoint: mean survival time, dose: 400.0 mg/kg/injection, schedule: Q01DX001 (ip), vehicle: saline with Tween-80
[6] = endpoint: mean survival time, dose: 400.0 mg/kg/injection, schedule: Q01DX009 (ip), vehicle: saline with Tween-80
[7] = endpoint: mean survival time, dose: 100.0 mg/kg/injection, schedule: Q04DX003 (ip), vehicle: saline with Tween-80
[8] = endpoint: mean survival time, dose: 200.0 mg/kg/injection, schedule: Q04DX003 (ip), vehicle: saline with Tween-80
[9] = endpoint: mean survival time, dose: 400.0 mg/kg/injection, schedule: Q04DX003 (ip), vehicle: saline with Tween-80
[10] = endpoint: mean survival time, dose: 100.0 mg/kg/injection, schedule: Q04DX002 (ip), vehicle: saline with Tween-80
[11] = endpoint: mean survival time, dose: 200.0 mg/kg/injection, schedule: Q04DX002 (ip), vehicle: saline with Tween-80
[12] = endpoint: mean survival time, dose: 400.0 mg/kg/injection, schedule: Q04DX002 (ip), vehicle: saline with Tween-80
[13] = endpoint: mean survival time, dose: 50.0 mg/kg/injection, schedule: Q04DX002 (ip), vehicle: saline with Tween-80

Measured: T/C

Cc1ccc(C)c(NC(=O)Oc2ccc(F)cc2)c1
inactive: [1] 96 % of control | [2] 94 % of control and 97 % of control | [3] 86 % of control | [4] 101 % of control | [5] 92 % of control | [6] 93 % of control and 103 % of control

CCCCCCCCCCCCCCCCOc1ccc(S(=O)(=O)N(C)C)cc1[N+](=O)[O-]
inactive: [7] 90 % of control | [8] 96 % of control | [9] 90 % of control

CCNC(=O)OC(C)C
inactive: [10] 90 % of control | [11] 102 % of control | [12] 94 % of control

O=C(Nc1ccc2c3c(ccc(NC(=O)c4ccccc4)c13)C=C2)c1ccccc1
inactive: [2] 95 % of control | [6] 89 % of control

O=C1CCc2c(Br)cccc21
inactive: [2] 106 % of control | [7] 114 % of control | [4] 101 % of control | [8] 100 % of control | [6] 110 % of control | [9] 101 % of control

Nc1c(O)cc(S(=O)(=O)O)c2ccccc12
inactive: endpoint: mean survival time, dose: 25.0 mg/kg/injection, schedule: Q04DX003 (ip), vehicle: saline 95 % of control | endpoint: mean survival time, dose: 50.0 mg/kg/injection, schedule: Q04DX003 (ip), vehicle: saline 103 % of control | endpoint: mean survival time, dose: 100.0 mg/kg/injection, schedule: Q04DX003 (ip), vehicle: saline 109 % of control

C=Cc1cc(OC)c2c(c1)c(=O)oc1c2cc(OC)c2c(O)ccc(C3OC(C(C)O)C(O)C3O)c21 (stereo not drawn)
inactive: endpoint: median survival time, dose: 25.0 mg/kg/injection, schedule: Q01DX009 (ip), vehicle: Klucel (hydroxypropylcellulose) (HPC) 112 % of control | endpoint: median survival time, dose: 36.0 mg/kg/injection, schedule: Q01DX009 (ip), vehicle: Klucel (hydroxypropylcellulose) (HPC) 118 % of control | endpoint: median survival time, dose: 50.0 mg/kg/injection, schedule: Q01DX009 (ip), vehicle: Klucel (hydroxypropylcellulose) (HPC) 112 % of control | endpoint: median survival time, dose: 60.0 mg/kg/injection, schedule: Q01DX009 (ip), vehicle: Klucel (hydroxypropylcellulose) (HPC) 109 % of control | endpoint: median survival time, dose: 100.0 mg/kg/injection, schedule: Q01DX009 (ip), vehicle: Klucel (hydroxypropylcellulose) (HPC) 113 % of control and 100 % of control | endpoint: median survival time, dose: 166.7 mg/kg/injection, schedule: Q01DX009 (ip), vehicle: Klucel (hydroxypropylcellulose) (HPC) 116 % of control | endpoint: median survival time, dose: 277.8 mg/kg/injection, schedule: Q01DX009 (ip), vehicle: Klucel (hydroxypropylcellulose) (HPC) 120 % of control | endpoint: median survival time, dose: 400.0 mg/kg/injection, schedule: Q01DX009 (ip), vehicle: Klucel (hydroxypropylcellulose) (HPC) 111 % of control

CC(Cl)S(=O)(=O)c1ccccc1 (stereo not drawn)
inactive: [10] 104 % of control | [11] 96 % of control | [12] 96 % of control

COc1ccc(/C=N/NC(=O)CNC(=O)Nc2cccc(Cl)c2)cc1
inactive: endpoint: mean survival time, dose: 12.5 mg/kg/injection, schedule: Q01DX009 (ip), vehicle: saline with Tween-80 91 % of control | endpoint: mean survival time, dose: 25.0 mg/kg/injection, schedule: Q01DX009 (ip), vehicle: saline with Tween-80 91 % of control

C=C(c1ccccc1)c1ccc(N(C)C)cc1
inactive: [7] 100 % of control | [8] 91 % of control | [9] 95 % of control

c1ccc2c(c1)-c1nc3ccccc3cc1CC21CCCC1
inactive: [1] 98 % of control | [3] 98 % of control | [5] 93 % of control

N/C(Cc1ccc(N)cc1)=N\O
inactive: [7] 110 % of control

Nc1ccc(CCC(=O)Nc2ccc(S(=O)(=O)F)cc2)cc1
inactive: endpoint: mean survival time, dose: 100.0 mg/kg/injection, schedule: Q01DX001 (ip), vehicle: saline 97 % of control | endpoint: mean survival time, dose: 200.0 mg/kg/injection, schedule: Q01DX001 (ip), vehicle: saline 102 % of control | endpoint: mean survival time, dose: 400.0 mg/kg/injection, schedule: Q01DX001 (ip), vehicle: saline 97 % of control

[O]=[Zr]
inactive: endpoint: mean survival time, dose: 75.0 mg/kg/injection, schedule: Q01DX001 (ip), vehicle: saline 94 % of control | endpoint: mean survival time, dose: 150.0 mg/kg/injection, schedule: Q01DX001 (ip), vehicle: saline 97 % of control | endpoint: mean survival time, dose: 300.0 mg/kg/injection, schedule: Q01DX001 (ip), vehicle: saline 98 % of control

CCCCCCCC[n+]1ccc(C#N)cc1
inactive: endpoint: mean survival time, dose: 18.8 mg/kg/injection, schedule: Q01DX009 (ip), vehicle: saline 98 % of control | endpoint: mean survival time, dose: 37.5 mg/kg/injection, schedule: Q01DX009 (ip), vehicle: saline 93 % of control

c1ccc(-c2oc(-c3ccccc3)c3c(-c4ccccc4)cccc23)cc1
inactive: [13] 90 % of control | [10] 87 % of control | [11] 87 % of control

Cc1ccc(C(O)c2c(C)cc(C)cc2C)c(C)c1 (stereo not drawn)
inactive: [7] 94 % of control | [8] 89 % of control | [9] 88 % of control

Cc1ccc(C(C#N)Nc2ccccc2)cc1 (stereo not drawn)
inactive: [2] 103 % of control | [7] 100 % of control | [4] 88 % of control | [8] 91 % of control | [6] 93 % of control | [9] 97 % of control

CCC(N)c1ccc2c3c(cccc13)CC2 (stereo not drawn)
inactive: [1] 89 % of control | [3] 86 % of control | [5] 89 % of control

C/C=C/CC(C/C=C/C)C1CC[N-]CC1.C/C=C/CC(C/C=C/C)C1CC[N-]CC1.[Cl][Pt+2]([Cl])([Cl])[Cl]
inactive: endpoint: mean survival time, dose: 12.5 mg/kg/injection, schedule: Q01DX009 (ip), vehicle: other 93 % of control | endpoint: mean survival time, dose: 100.0 mg/kg/injection, schedule: Q01DX009 (ip), vehicle: other 88 % of control

N#C/C(=C\C1CCC(Cl)C(Cl)C1)C1CCC([N+](=O)[O-])CC1 (stereo not drawn)
inactive: endpoint: mean survival time, dose: 25.0 mg/kg/injection, schedule: Q04DX002 (ip), vehicle: saline with Tween-80 94 % of control | [13] 88 % of control

CCC(N)(CO)CO
inactive: endpoint: mean survival time, dose: 100.0 mg/kg/injection, schedule: Q01DX009 (ip), vehicle: saline 100 % of control | endpoint: mean survival time, dose: 200.0 mg/kg/injection, schedule: Q01DX009 (ip), vehicle: saline 94 % of control | endpoint: mean survival time, dose: 400.0 mg/kg/injection, schedule: Q01DX009 (ip), vehicle: saline 94 % of control

CCCCCCCCCCNC(C1=C(O)c2ccccc2C(=O)C1=O)c1ccccc1 (stereo not drawn)
inactive: endpoint: mean survival time, dose: 6.25 mg/kg/injection, schedule: Q01DX001 (ip), vehicle: saline with Tween-80 107 % of control | endpoint: mean survival time, dose: 12.5 mg/kg/injection, schedule: Q01DX001 (ip), vehicle: saline with Tween-80 100 % of control | endpoint: mean survival time, dose: 25.0 mg/kg/injection, schedule: Q01DX001 (ip), vehicle: saline with Tween-80 92 % of control

S=C(CSc1ccccc1)Nc1cccc2ccccc12
inactive: [7] 101 % of control | [8] 91 % of control | [9] 93 % of control

CC1(C)SSC(C)(C)SS1
inactive: [7] 106 % of control | [8] 97 % of control | [9] 103 % of control

NC1CCCCC1N.NC1CCCCC1N.[Cl-].[Cu+] (stereo not drawn)
inactive: endpoint: mean survival time, dose: 1.56 mg/kg/injection, schedule: Q04DX002 (ip), vehicle: saline 97 % of control | endpoint: mean survival time, dose: 3.13 mg/kg/injection, schedule: Q04DX002 (ip), vehicle: saline 97 % of control | endpoint: mean survival time, dose: 6.25 mg/kg/injection, schedule: Q04DX002 (ip), vehicle: saline 97 % of control

CCOC(=O)N1C(=O)c2ccccc2C1=O
inactive: [2] 93 % of control | [4] 93 % of control | [6] 100 % of control
